# In patent US20230041563A1, “N-(1,3,4-OXADIAZOL-2-YL)ARYLCARBOXAMIDES OR SALTS THEREOF, PREPARATION METHODS, HERBICIDAL COMPOSITIONS AND USES THEREOF” (priority 2018, published 2023):
# Key:
# Format in all cases: in vivo
# [1] = tested on: Amaranthus retroflexus; experiment: Weeding effect in post-emergence stage (greenhouse pot spray)
# Outline: (§1)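 Read-out: fresh-weight growth control rate scored 3 weeks after spraying, mean of three replicates. Plants treated at 2-3 leaf stage by spray tower, doses 500-15 g a.i./ha (500, 250, 125, 60, 15).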
# [2] = tested on: Stellaria media; experiment: as above
# Outline: as §1
# [3] = tested on: weeds; experiment: Actual control effects and combined effects of mixtures of active ingredients (i) and (ii), stem-leaf treatment, Gowing method; conditions: stem-leaf treatment, 20 days
# [4] = tested on: Digitaria sanguinalis; experiment: Post-emergence control experiment of R configuration compound activity (weeds 4-5 leaf stage, 25 days); conditions: 30 g a.i./ha
# Protocol: (§2) Experiment on weeding effect in post-emergence stage: after 3-4 weeks of sowing, the test plants were treated in the 1.5-2 leaf stage of the directly sowed rice Longyang 16, and the 4-5 leaf stage of weeds. After the application of the compounds of the present invention, the plants were cultured for 25 days in the greenhouse, and then the experimental results of the weeding were counted.
# [5] = tested on: Leptochloa chinensis; experiment: as above; conditions: 60 g a.i./ha
# Protocol: as §2
# [6] = tested on: Green Setaria viridis; experiment: as above; conditions: 60 g a.i./ha
# Protocol: as §2
# [7] = tested on: Abutilon theophrasti; experiment: as above; conditions: 30 g a.i./ha
# Protocol: as §2
# [8] = tested on: Setaria viridis; experiment: Weeding effect in post-emergence stage (greenhouse pot spray); conditions: Table 3, dose 60 g a.i./ha
# Outline: as §1
# [9] = tested on: Digitaria sanguinalis; experiment: as above
# Outline: as §1
# [10] = tested on: Echinochloa crusgalli; experiment: as above
# Outline: as §1
# [11] = tested on: Abutilon theophrasti; experiment: as above
# Outline: as §1
smiles,measurement,setting,value
Cc1nnc(NC(=O)c2ccc(C(F)(F)F)c([S+](C)[O-])c2F)o1 (racemic) [Compound 1-2],Amaranthus retroflexus (activity level),"[1]; Table 2, dose 60 g a.i./ha",4 (Level 4: growth control rate is greater than or equal to 60% and less than 85%)
same,Amaranthus retroflexus (activity level),"[1]; Table 2, dose 125 g a.i./ha",4 (Level 4: growth control rate is greater than or equal to 60% and less than 85%)
same,Amaranthus retroflexus (activity level),"[1]; Table 2, dose 250 g a.i./ha",4 (Level 4: growth control rate is greater than or equal to 60% and less than 85%)
same,Amaranthus retroflexus (activity level),"[1]; Table 2, dose 500 g a.i./ha",4 (Level 4: growth control rate is greater than or equal to 60% and less than 85%)
same,Stellaria media (activity level),"[2]; Table 2, dose 60 g a.i./ha",3 (Level 3: growth control rate is greater than or equal to 40% and less than 60%)
same,Stellaria media (activity level),"[2]; Table 2, dose 125 g a.i./ha",3 (Level 3: growth control rate is greater than or equal to 40% and less than 60%)
same,Stellaria media (activity level),"[2]; Table 2, dose 250 g a.i./ha",4 (Level 4: growth control rate is greater than or equal to 60% and less than 85%)
same,Stellaria media (activity level),"[2]; Table 2, dose 500 g a.i./ha",4 (Level 4: growth control rate is greater than or equal to 60% and less than 85%)
same,Control effect of (i) alone at corresponding dose,"[3]; Cyperus difformis, (i) 1 g a.i./mu",7.8%
same,Control effect of (i) alone at corresponding dose,"[3]; Cyperus difformis, (i) 5 g a.i./mu",36.5%
same,Control effect of (i) alone at corresponding dose,"[3]; Digitaria sanguinalis, (i) 1 g a.i./mu",18.2%
same,Control effect of (i) alone at corresponding dose,"[3]; Digitaria sanguinalis, (i) 2 g a.i./mu",40.6%
same,Control effect of (i) alone at corresponding dose,"[3]; Digitaria sanguinalis, (i) 3 g a.i./mu",65.3%
same,Control effect of (i) alone at corresponding dose,"[3]; Echinochloa phyllopogon, (i) 1 g a.i./mu",12.6%
same,Control effect of (i) alone at corresponding dose,"[3]; Echinochloa phyllopogon, (i) 2 g a.i./mu",26.8%
same,Control effect of (i) alone at corresponding dose,"[3]; Echinochloa phyllopogon, (i) 3 g a.i./mu",53.7%
same,Control effect of (i) alone at corresponding dose,"[3]; Leptochloa chinensis, (i) 5 g a.i./mu",6.5%
same,Control effect of (i) alone at corresponding dose,"[3]; Leptochloa chinensis, (i) 15 g a.i./mu",30.6%
same,Control effect of (i) alone at corresponding dose,"[3]; Monochoria vaginalis, (i) 3 g a.i./mu",7.8%
same,Control effect of (i) alone at corresponding dose,"[3]; Monochoria vaginalis, (i) 5 g a.i./mu",7.8%
same,Control effect of (i) alone at corresponding dose,"[3]; Monochoria vaginalis, (i) 15 g a.i./mu",30.9%
same,Control effect of (i) alone at corresponding dose,"[3]; Sagittaria trifolia, (i) 1 g a.i./mu",19.7%
same,Control effect of (i) alone at corresponding dose,"[3]; Sagittaria trifolia, (i) 3 g a.i./mu",50.3%
same,Digitaria sanguinalis (30 g a.i./ha) inhibition rate,[4],0%
same,Leptochloa chinensis (60 g a.i./ha) inhibition rate,[5],0%
same,Green Setaria viridis (60 g a.i./ha) inhibition rate,[6],20%
same,Ablation theophrasti (30 g a.i./ha) inhibition rate,[7],60%
same,Setaria viridis (activity level),[8],3 (Level 3: growth control rate is greater than or equal to 40% and less than 60%)
same,Digitaria sanguinalis (activity level),"[9]; Table 2, dose 60 g a.i./ha",3 (Level 3: growth control rate is greater than or equal to 40% and less than 60%)
same,Digitaria sanguinalis (activity level),"[9]; Table 2, dose 125 g a.i./ha",3 (Level 3: growth control rate is greater than or equal to 40% and less than 60%)
same,Digitaria sanguinalis (activity level),"[9]; Table 2, dose 250 g a.i./ha",4 (Level 4: growth control rate is greater than or equal to 60% and less than 85%)
same,Digitaria sanguinalis (activity level),"[9]; Table 2, dose 500 g a.i./ha",4 (Level 4: growth control rate is greater than or equal to 60% and less than 85%)
same,Digitaria sanguinahs (activity level),"[9]; Table 3, dose 60 g a.i./ha",3 (Level 3: growth control rate is greater than or equal to 40% and less than 60%)
same,Echinochloa crusgah (activity level),"[10]; Table 2, dose 60 g a.i./ha",3 (Level 3: growth control rate is greater than or equal to 40% and less than 60%)
same,Echinochloa crusgah (activity level),"[10]; Table 2, dose 125 g a.i./ha",4 (Level 4: growth control rate is greater than or equal to 60% and less than 85%)
same,Echinochloa crusgah (activity level),"[10]; Table 2, dose 250 g a.i./ha",4 (Level 4: growth control rate is greater than or equal to 60% and less than 85%)
same,Echinochloa crusgah (activity level),"[10]; Table 2, dose 500 g a.i./ha",4 (Level 4: growth control rate is greater than or equal to 60% and less than 85%)
same,Echinochloa crusgali (activity level),"[10]; Table 3, dose 60 g a.i./ha",3 (Level 3: growth control rate is greater than or equal to 40% and less than 60%)
same,Abutilion theophrasti (activity level),"[11]; Table 2, dose 60 g a.i./ha",4 (Level 4: growth control rate is greater than or equal to 60% and less than 85%)
same,Abutilion theophrasti (activity level),"[11]; Table 2, dose 125 g a.i./ha",4 (Level 4: growth control rate is greater than or equal to 60% and less than 85%)
same,Abutilion theophrasti (activity level),"[11]; Table 2, dose 250 g a.i./ha",4 (Level 4: growth control rate is greater than or equal to 60% and less than 85%)
same,Abutilion theophrasti (activity level),"[11]; Table 2, dose 500 g a.i./ha",4 (Level 4: growth control rate is greater than or equal to 60% and less than 85%)
same,Abutilon theophrasti (activity level),"[11]; Table 3, dose 60 g a.i./ha",4 (Level 4: growth control rate is greater than or equal to 60% and less than 85%)
